5 compounds from ChEMBL document CHEMBL1201862, “PubChem BioAssay data set” (2004) can be followed below.

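Following 48 hours of exposure in 96-well plates, responses at five concentrations were used to interpolate endpoints linearly. GI50 marks 50% less growth.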 Activity calls are given as the source filed them. Rule as the data show it: active = GI50 up to about 1.1 µM and inactive = higher.

Among the test systems are ACHN; COLO 205; HCT-116; HOP-62; K562; KM12; MOLT-4; NCI-H522; OVCAR-3; RXF 393; SF-539; SK-MEL-5; SK-OV-3; SNB-75; SNB-78; UACC-257.
Experiment in all cases: growth of human tumour cells (NCI), 48 h

`COc1cccc2c1[C@H]1OC(=O)NC1CCCCC2` (stereo partly drawn): the GI50 with ACHN, in the test on COLO 205, in the test with HCT-116, in the test with HOP-62, in the test on K562 and in the test with KM12 was > 100 µM (inactive) each time. Further, the GI50 in the test with MOLT-4, in the test on NCI-H522, with OVCAR-3, in the test on RXF 393, with SF-539 and with SK-MEL-5 was > 100 µM (inactive) each time. The GI50 in the test on SK-OV-3, in the test on SNB-75, in the test on SNB-78 and with UACC-257 was > 100 µM (inactive) throughout.
For the compound `[O-][n+]1c2cc(CN3CCOCC3)c(CN3CCOCC3)cc2[n+]([O-])c2c(O)cccc21`, the GI50 was 4.07 µM (inactive) in the test with ACHN; 5 µM (inactive) in the test with COLO 205; 1.81 µM (inactive) in the test on HCT-116; 3.75 µM (inactive) in the test on HOP-62; 2.61 µM (inactive) with K562; 4.4 µM (inactive) with KM12. The GI50 in the test with MOLT-4 is 0.627 µM (active); with NCI-H522, 1.88 µM (inactive); with OVCAR-3 it was 5.15 µM (inactive); in the test with RXF 393, 0.968 µM (active); with SF-539, 1.08 µM (active); in the test with SK-OV-3 it was 4.13 µM (inactive). Besides, the GI50 in the test on SNB-75 is 3.46 µM (inactive); with SNB-78 it was 3.18 µM (inactive); in the test with UACC-257, 6.24 µM (inactive).
Regarding `CC(=O)NC(CCCCNCc1ccccc1)C(=O)NCc1ccccc1` (stereo not drawn), the GI50 in the test with ACHN, with COLO 205, with HCT-116, in the test with HOP-62, in the test on K562 and in the test on KM12 was > 100 µM (inactive) each time. Further, the GI50 in the test on MOLT-4, in the test with NCI-H522, in the test on OVCAR-3, with RXF 393, with SF-539 and in the test on SK-MEL-5 was > 100 µM (inactive) throughout. Moreover, the GI50 in the test on SK-OV-3 was > 100 µM (inactive); in the test with SNB-75, 30.5 µM (inactive); in the test on SNB-78 it was > 100 µM (inactive); in the test with UACC-257, > 100 µM (inactive).
`CN(C)CCNC(=O)c1cccc2ccc(-c3ccc(-c4ccccc4)cc3)nc12`: the GI50 in the test on ACHN was 5.47 µM (inactive); with COLO 205 it was 1.6 µM (inactive); in the test on HCT-116, 1.72 µM (inactive); in the test on HOP-62 it was 3.3 µM (inactive); in the test on K562, 2.13 µM (inactive); in the test on KM12, 2.09 µM (inactive). Besides, the GI50 was 1.91 µM (inactive) in the test with MOLT-4; 1.88 µM (inactive) in the test on NCI-H522; 6.01 µM (inactive) in the test on OVCAR-3; 2.22 µM (inactive) in the test on RXF 393; 1.8 µM (inactive) in the test on SF-539; 1.72 µM (inactive) in the test with SK-MEL-5. For the same compound, the GI50 is 17 µM (inactive) in the test on SK-OV-3, 2.88 µM (inactive) with SNB-75, 14 µM (inactive) in the test with SNB-78 and 1.86 µM (inactive) in the test on UACC-257.
On to `CC(=O)NNc1nc(C)c(C(=O)/C=C/c2ccc(Cl)cc2)s1`, for which the GI50 in the test on ACHN, with COLO 205, with HOP-62, with K562, with KM12 and in the test with MOLT-4 was > 100 µM (inactive) each time. Moreover, the GI50 with NCI-H522, with OVCAR-3, in the test on RXF 393, with SF-539, in the test with SK-MEL-5 and with SK-OV-3 was > 100 µM (inactive) throughout. The GI50 in the test with SNB-75, in the test on SNB-78 and in the test on UACC-257 was > 100 µM (inactive) each time.
